As usually defined, the inhibition is the share of the control response that was lost under treatment.

The values that follow come from paper PMC6562126, “Identification and characterization of a carnitine transporter in Acinetobacter baumannii” (MicrobiologyOpen, 2018).

Experiment [1] concerns the target T1, Aci01347 (Acinetobacter baumannii, UniProt D0C9N4).
T1 construct: gene HMPREF0010_01347; N-terminal His6 tag, pBAD/HisA; expressed in E. coli MKH13 (no compatible solute transporters)
T1 sequence (D0C9N4 1-550): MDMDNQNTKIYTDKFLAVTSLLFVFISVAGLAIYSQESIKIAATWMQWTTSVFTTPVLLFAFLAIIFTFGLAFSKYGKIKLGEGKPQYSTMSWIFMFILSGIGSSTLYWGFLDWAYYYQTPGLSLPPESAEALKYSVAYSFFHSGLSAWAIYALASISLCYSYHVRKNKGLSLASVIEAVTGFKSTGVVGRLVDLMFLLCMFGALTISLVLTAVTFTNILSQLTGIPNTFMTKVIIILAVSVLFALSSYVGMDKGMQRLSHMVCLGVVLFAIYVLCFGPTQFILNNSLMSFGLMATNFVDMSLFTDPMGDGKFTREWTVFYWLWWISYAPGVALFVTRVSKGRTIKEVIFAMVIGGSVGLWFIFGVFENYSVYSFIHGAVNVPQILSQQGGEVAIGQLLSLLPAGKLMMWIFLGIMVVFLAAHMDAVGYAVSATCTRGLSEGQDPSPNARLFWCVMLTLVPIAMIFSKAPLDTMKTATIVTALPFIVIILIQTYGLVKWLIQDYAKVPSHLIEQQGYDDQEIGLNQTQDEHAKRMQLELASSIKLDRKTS
Nature of the experiment: competition with […]-choline uptake in E. coli MKH13 expressing Aci01347. The experiment is classed as cell-based. The note with it: read-out: % inhibition at 0.5 mM.

Experiment [2] deals with T1, Aci01347. Put plainly: […]-choline uptake in E. coli MKH13 expressing Aci01347. Conditions: 500 µM substrate; KPi 25 mM pH 7.5, 0.2 osmol/kg, 37 °C, glucose-energised cells; labelled compound. It is filed as cell-based.

Each structure is given as a SMILES string.

As for `C[N+](C)(C)CC(=O)[O-]` [glycine betaine], the inhibition at 500 µM at Aci01347 [1] came out at 14.5%.
Regarding `C[N+](C)(C)CCO` [choline, 2-hydroxyethyl trimethylammonium chloride], the “[14C]-choline uptake in E. coli MKH13 expressing Aci01347” value at Aci01347 [2] was “These data demonstrate that Aci01347 translocates choline”.
As for `C[N+]1(C)CCC[C@H]1C(=O)[O-]` [proline betaine], on Aci01347 [1], the inhibition at 500 µM turned out to be 2.4%.
Same read-out and setting: the value for `CC1=NCC[C@@H](C(=O)O)N1` [ectoine] was 9.2%; that for `O=C(O)[C@@H]1CCCN1` [proline] was 4.6%.
